How the values were obtained:
HuapoAI transgenic mice = experiment: Evaluation of triglyceride and cholesterol level in HuapoAI transgenic mice; assay type: in vivo; conditions: Mus musculus, 168 h, human apoAI transgenic mice, 30 mg/kg oral gavage daily for 7 days; for change in vivo at 30 mg/kg: FPLC area under the curve, over mice receiving vehicle, read-out: % HDLc Increase; for inhibition in vivo at 30 mg/kg: serum 3 h after dosing, read-out: Reduction in Triglyceride Serum Level
Procedure: After an acclimation period of 2 weeks, animals were individually identified by ear notches, weighed, and assigned to groups based on body weight. Beginning the following morning, mice were dosed daily by oral gavage for 7 days using a 20 gauge, 1½″ curved disposable feeding needle (Popper & Sons). […] Prior to termination on day 7, mice were weighed and dosed. Three hours after dosing, animals were anesthetized by inhalation of isoflurane (2-4%; Abbott Laboratories, Chicago, Ill.) and blood obtained via cardiac puncture (0.7-1.0 ml). Whole blood was transferred to serum separator tubes (Vacutainer SST), chilled on ice, and permitted to clot. Serum was obtained after centrifugation at 4° C. and frozen until analysis for triglycerides, total cholesterol, compound levels, and serum lipoprotein profile by fast protein liquid chromatography (FPLC) coupled to an inline detection system. After sacrifice by cervical dislocation, the liver, heart and epididymal fat pads were excised and weighed.
The absorbance of the dye produced is linearly related to the analyte in the sample. The assays were further modified in our laboratory for use in a 96 well format. […] An additional aliquot of sample, pipetted to a third well and diluted in 200 μl water, provided a blank for each specimen. […] Sample absorbances were compared to a standard curve (100-800, 10-500, and 100-400 mg/dl for glucose, triglycerides and total cholesterol, respectively). […] All samples from an experiment were assayed at the same time to minimize inter-assay variability.
Serum lipoproteins were separated and cholesterol quantitated with an in-line detection system. Sample was applied to a Superose® 6 HR 10/30 size exclusion column (Amersham Pharmacia Biotech) and eluted with phosphate buffered saline-EDTA at 0.5 ml/min. […] The change in voltage corresponding to change in cholesterol concentration was plotted vs time and the area under the curve corresponding to the elution of VLDL, LDL and HDL was calculated using Perkin Elmer Turbochrome software.

huPPARα = experiment: Cotransfection assay in CV-1 cells, huPPARα; assay type: cell-based, human; conditions: GAL4 chimeric system, relative to PPARα agonist reference molecule
Procedure: DNA-dependent binding (ABCD binding) was carried out using SPA technology with PPAR receptors. Tritium-labeled PPARα and PPARγ agonists were used as radioligands for generating displacement curves and IC50 values with compounds of the invention. Cotransfection assays were carried out in CV-1 cells. The reporter plasmid contained an acylCoA oxidase (AOX) PPRE and TK promoter upstream of the luciferase reporter cDNA. Appropriate PPARs and RXRα were constitutively expressed using plasmids containing the CMV promoter. […] In order to eliminate such interference, a GAL4 chimeric system was used in which the DNA binding domain of the transfected PPAR was replaced by that of GAL4, and the GAL4 response element was utilized in place of the AOX PPRE. Cotransfection efficacy was determined relative to PPARα agonist and PPARγ agonist reference molecules. Efficacies were determined by computer fit to a concentration-response curve, or in some cases at a single high concentration of agonist (10 μM). For binding or cotransfection studies with receptors other than PPARs, similar assays were carried out using appropriate ligands, receptors, reporter constructs, etc., for that particular receptor.
These studies were carried out to evaluate the ability of compounds of the invention to bind to and/or activate various nuclear transcription factors, particularly huPPARα (“hu” indicates “human”) and huPPARγ. These studies provide in vitro data concerning efficacy and selectivity of compounds of the invention. Furthermore, binding and cotransfection data for compounds of the invention were compared with corresponding data for marketed compounds that act on either huPPARα or huPPARγ.

Cc1oc(-c2cccc(Br)c2)nc1CCOc1ccc(CC(C)(Oc2ccccc2)C(=O)O)cc1 (stereo not drawn) [Example 8, 3-(4-{2-[2-(3-Bromophenyl)-5-methyloxazol-4-yl]ethoxy}phenyl)-2-methyl-2-phenoxypropionic acid]
change in vivo at 30 mg/kg (HuapoAI transgenic mice): 34% | huPPARα CTF Efficacy (huPPARα): 54%

Cc1oc(C2(C)CCCCC2)nc1CCOc1ccc(CC(C)(Oc2ccccc2)C(=O)O)cc1 (stereo not drawn) [Example 9, 2-Methyl-3-(4-{2-[5-methyl-2-(1-methylcyclohexyl)oxazol-4-yl]ethoxy}phenyl)-2-phenoxypropionic acid]
change in vivo at 30 mg/kg (HuapoAI transgenic mice): 123% | inhibition in vivo at 30 mg/kg (HuapoAI transgenic mice): 19.8% | huPPARα CTF Efficacy (huPPARα): 61%

Cc1oc(-c2cccs2)nc1CCOc1ccc(CC(C)(Oc2ccc(C(C)(C)C)cc2)C(=O)O)cc1 (stereo not drawn) [Example 17, 2-Methyl-3-{4-[2-(5-methyl-2-thiophen-2-yl-oxazol-4-yl)-ethoxy]-phenyl}-2-(4-tert-butylphenoxy)-propionic acid]
change in vivo at 30 mg/kg (HuapoAI transgenic mice): 119% | inhibition in vivo at 30 mg/kg (HuapoAI transgenic mice): 78.7% | huPPARα CTF Efficacy (huPPARα): 129%

Cc1oc(C2CCCCC2)nc1CCOc1ccc(CC(C)(Oc2ccc(C(C)(C)C)cc2)C(=O)O)cc1 (stereo not drawn) [Example 18, 2-Methyl-3-(4-{2-[5-methyl-2-cyclohexylyl-oxazol-4-yl]-ethoxy}-phenyl)-2-(4-tert-butylphenoxy)-propionic acid]
change in vivo at 30 mg/kg (HuapoAI transgenic mice): 141% | inhibition in vivo at 30 mg/kg (HuapoAI transgenic mice): 69% | huPPARα CTF Efficacy (huPPARα): 102%

COc1ccc(OC(C)(Cc2ccc(OCCc3nc(-c4cccs4)oc3C)cc2)C(=O)O)cc1 (stereo not drawn) [Example 19, 2-Methyl-3-{4-[2-(5-methyl-2-thiophen-2-yl-oxazol-4-yl)-ethoxy]-phenyl}-2-(4-methoxyphenoxy)-propionic acid]
change in vivo at 30 mg/kg (HuapoAI transgenic mice): 89% | inhibition in vivo at 30 mg/kg (HuapoAI transgenic mice): 40% | huPPARα CTF Efficacy (huPPARα): 64%

Cc1oc(-c2cccs2)nc1CCOc1ccc(CC(C)(Oc2cccc(F)c2)C(=O)O)cc1 (stereo not drawn) [Example 22, 2-(3-Fluoro-phenoxy)-2-methyl-3-{4-[2-(5-methyl-2-thiophen-2-yl-oxazol-4-yl)-ethoxy]-phenyl}-propionic acid]
change in vivo at 30 mg/kg (HuapoAI transgenic mice): 29% | inhibition in vivo at 30 mg/kg (HuapoAI transgenic mice): 19.5% | huPPARα CTF Efficacy (huPPARα): 51%

Cc1oc(C2CCCCC2)nc1CCOc1ccc(CC(C)(Oc2cccc(F)c2)C(=O)O)cc1 (stereo not drawn) [Example 23, 2-(3-Fluoro-phenoxy)-2-methyl-3-{4-[2-(5-methyl-2-cyclohexyl-oxazol-4-yl)-ethoxy]-phenyl}-propionic acid]
change in vivo at 30 mg/kg (HuapoAI transgenic mice): 54% | inhibition in vivo at 30 mg/kg (HuapoAI transgenic mice): 52.5% | huPPARα CTF Efficacy (huPPARα): 40%

Cc1oc(-c2cccs2)nc1CCOc1ccc(CC(C)(Oc2cccc(C(C)(C)C)c2)C(=O)O)cc1 (stereo not drawn) [Example 25, 2-(3-tert-Butyl-phenoxy)-2-methyl-3-{4-[2-(5-methyl-2-thiophen-2-yl-oxazol-4-yl)-ethoxy]-phenyl}-propionic acid]
change in vivo at 30 mg/kg (HuapoAI transgenic mice): 8% | inhibition in vivo at 30 mg/kg (HuapoAI transgenic mice): 35.5% | huPPARα CTF Efficacy (huPPARα): 95%

Cc1oc(-c2cccs2)nc1CCOc1ccc(CC(C)(Oc2ccccc2F)C(=O)O)cc1 (stereo not drawn) [Example 27, 2-(2-Fluoro-phenoxy)-2-methyl-3-{4-[2-(5-methyl-2-thiophen-2-yl-oxazol-4-yl)-ethoxy]-phenyl}-propionic acid]
change in vivo at 30 mg/kg (HuapoAI transgenic mice): 49% | inhibition in vivo at 30 mg/kg (HuapoAI transgenic mice): 36.8% | huPPARα CTF Efficacy (huPPARα): 46%

Cc1oc(-c2ccccc2)nc1CCOc1ccc(CC(C)(Oc2ccc(Cl)cc2)C(=O)O)cc1 (stereo not drawn) [Example 29, 2-(4-Chloro-phenoxy)-2-methyl-3-{4-[2-(5-methyl-2-phenyl-oxazol-4-yl)-ethoxy]-phenyl}-propionic acid]
change in vivo at 30 mg/kg (HuapoAI transgenic mice): 78% | huPPARα CTF Efficacy (huPPARα): 65%

Cc1oc(C2CCCCC2)nc1CCOc1ccc(CC(C)(Oc2ccc(C3CCCCC3)cc2)C(=O)O)cc1 (stereo not drawn) [Example 34, 3-{4-[2-(2-Cyclohexyl-5-methyl-oxazol-4-yl)-ethoxy]-phenyl}-2-(4-cyclohexyl-phenoxy)-2-methyl-propionic acid]
change in vivo at 30 mg/kg (HuapoAI transgenic mice): 95% | inhibition in vivo at 30 mg/kg (HuapoAI transgenic mice): 57.1% | huPPARα CTF Efficacy (huPPARα): 112%

Cc1ccc(OC(C)(Cc2ccc(OCCc3nc(C4CCCCC4)oc3C)cc2)C(=O)O)cc1C (stereo not drawn) [Example 35, 3-{4-[2-(2-Cyclohexyl-5-methyl-oxazol-4-yl)-ethoxy]-phenyl}-2-(3,4-dimethyl-phenoxy)-2-methyl-propionic acid]
change in vivo at 30 mg/kg (HuapoAI transgenic mice): 77% | inhibition in vivo at 30 mg/kg (HuapoAI transgenic mice): 32.3% | huPPARα CTF Efficacy (huPPARα): 78%

Cc1ccc(OC(C)(Cc2ccc(OCCc3nc(-c4cccs4)oc3C)cc2)C(=O)O)cc1C (stereo not drawn) [Example 36, 2-(3,4-Dimethyl-phenoxy)-2-methyl-3-{4-[2-(5-methyl-2-thiophen-2-yl-oxazol-4-yl)-ethoxy]-phenyl}-propionic acid]
change in vivo at 30 mg/kg (HuapoAI transgenic mice): 30% | inhibition in vivo at 30 mg/kg (HuapoAI transgenic mice): 23% | huPPARα CTF Efficacy (huPPARα): 70%

Cc1ccc(OC(C)(Cc2ccc(OCCc3nc(-c4cccs4)oc3C)cc2)C(=O)O)cc1 (stereo not drawn) [Example 40, 2-Methyl-3-{4-[2-(5-methyl-2-thiophen-2-yl-oxazol-4-yl)-ethoxy]-phenyl}-2-p-tolyloxy-propionic acid]
change in vivo at 30 mg/kg (HuapoAI transgenic mice): 131% | inhibition in vivo at 30 mg/kg (HuapoAI transgenic mice): 77.6% | huPPARα CTF Efficacy (huPPARα): 77%

Cc1ccc(OC(C)(Cc2ccc(OCCc3nc(C4CCCCC4)oc3C)cc2)C(=O)O)cc1 (stereo not drawn) [Example 41, 3-{4-[2-(2-Cyclohexyl-5-methyl-oxazol-4-yl)-ethoxy]-phenyl}-2-methyl-2-p-tolyloxy-propionic acid]
change in vivo at 30 mg/kg (HuapoAI transgenic mice): 96% | inhibition in vivo at 30 mg/kg (HuapoAI transgenic mice): 57.8% | huPPARα CTF Efficacy (huPPARα): 49%

Cc1oc(C2CCCCC2)nc1CCOc1ccc(CC(C)(Oc2ccc(OC(F)(F)F)cc2)C(=O)O)cc1 (stereo not drawn) [Example 44, 3-{4-[2-(2-Cyclohexyl-5-methyl-oxazol-4-yl)-ethoxy]-phenyl}-2-methyl-2-(4-trifluoromethoxy-phenoxy)-propionic acid]
change in vivo at 30 mg/kg (HuapoAI transgenic mice): 151% | huPPARα CTF Efficacy (huPPARα): 54%

Cc1oc(-c2cccs2)nc1CCOc1ccc(CC(C)(Oc2ccc(C(F)(F)F)cc2)C(=O)O)cc1 (stereo not drawn) [Example 51, 2-Methyl-3-{4-[2-(5-methyl-2-thiophen-2-yl-oxazol-4-yl)-ethoxy]-phenyl}-2-(4-trifluoromethyl-phenoxy)-propionic acid]
change in vivo at 30 mg/kg (HuapoAI transgenic mice): 122% | inhibition in vivo at 30 mg/kg (HuapoAI transgenic mice): 72.8% | huPPARα CTF Efficacy (huPPARα): 152%

Cc1oc(C2CCCCC2)nc1CCOc1ccc(CC(C)(Oc2ccc(C(F)(F)F)cc2)C(=O)O)cc1 (stereo not drawn) [Example 52, 3-{4-[2-(2-Cyclohexyl-5-methyl-oxazol-4-yl)-ethoxy]-phenyl}-2-methyl-2-(4-trifluoromethyl-phenoxy)-propionic acid]
change in vivo at 30 mg/kg (HuapoAI transgenic mice): 185% | inhibition in vivo at 30 mg/kg (HuapoAI transgenic mice): 75.9% | huPPARα CTF Efficacy (huPPARα): 108%

Cc1oc(C2CCCCC2)nc1CCOc1ccc(CC(C)(Oc2ccc(F)c(F)c2)C(=O)O)cc1 (stereo not drawn) [Example 58, 3-{4-[2-(2-Cyclohexyl-5-methyl-oxazol-4-yl)-ethoxy]-phenyl}-2-(3,4-difluoro-phenoxy)-2-methyl-propionic acid]
change in vivo at 30 mg/kg (HuapoAI transgenic mice): 74% | inhibition in vivo at 30 mg/kg (HuapoAI transgenic mice): 26.5% | huPPARα CTF Efficacy (huPPARα): 149%

Cc1cccc(OC(C)(Cc2ccc(OCCc3nc(-c4cccs4)oc3C)cc2)C(=O)O)c1 (stereo not drawn) [Example 61, 2-Methyl-3-{4-[2-(5-methyl-2-thiophen-2-yl-oxazol-4-yl)-ethoxy]-phenyl}-2-m-tolyloxy-propionic acid]
change in vivo at 30 mg/kg (HuapoAI transgenic mice): 72% | inhibition in vivo at 30 mg/kg (HuapoAI transgenic mice): 17.6% | huPPARα CTF Efficacy (huPPARα): 52%

Cc1cccc(OC(C)(Cc2ccc(OCCc3nc(C4CCCCC4)oc3C)cc2)C(=O)O)c1 (stereo not drawn) [Example 62, 3-{4-[2-(2-Cyclohexyl-5-methyl-oxazol-4-yl)-ethoxy]-phenyl}-2-methyl-2-m-tolyloxy-propionic acid]
change in vivo at 30 mg/kg (HuapoAI transgenic mice): 72% | inhibition in vivo at 30 mg/kg (HuapoAI transgenic mice): 2.5% | huPPARα CTF Efficacy (huPPARα): 101%

Reference: patent US7345070B2, “Peroxisome proliferator activated receptor agonists” (Eli Lilly and Company, priority 2000, dated 2008)
